Source: patent publication US20050096254A1, “Peptide deformylase activated prodrugs” (priority 2002, published 2005)

Legend:
[1] = tested on: S. epidermidis; assay: MIC susceptibility testing (modified NCCLS); assay type: cell-based
Procedure: (§1) The NCCLS (National Committee for Clinical Laboratory Standards), method to determine MIC's of antimicrobial compounds is modified for high-throughput screening. All stocks of tested compounds are prepared in either water or in DMSO depending on solubility. At the highest concentration, DMSO content should not exceed 0.5%. Briefly, twenty 2-fold serial dilutions of test compounds from the highest concentration is made in a 384-well microtiter plate. Each well is inoculated with testing bacteria in broth to a final concentration of approximately 1-1.5×10^6 cells/ml. Bacterial growth is determined by the increase of optical density at 600 nm using a microplate reader (Tecan SpectraFluor Plus).

[2] = tested on: S. aureus; assay: MIC susceptibility testing (modified NCCLS); assay type: cell-based
Procedure: as §1

Measured: MIC

CSCC[C@H](NC=O)C(=O)N[C@@H](CC(C)C)C(=O)Oc1cc(Cl)ccc1Oc1ccc(Cl)cc1Cl [Compound #2]
15.63 ng/mL: [2]; Table 5, MSSA ATCC 33591 | [2]; Table 5, MSSA ATCC 700789
2000 ng/mL: [1]; Table 3, S. epidermidis ATCC 700565, Exp. #1 | [1]; Table 3, S. epidermidis ATCC 700565, Exp. #2
250 ng/mL: [1]; Table 3, S. epidermidis ATCC 700578, Exp. #2
≧4 μg/ml: [2]; Table 5, MSSA ATCC 700699
32000 ng/mL: [2]; Table 4, MRSA ATCC 700699, Exp. #1 | [2]; Table 4, MRSA ATCC 700699, Exp. #2 | [2]; Table 4, MSSA ATCC 11632, Exp. #1
16000 ng/mL: [2]; Table 3, S. aureus ATCC 700699, Exp. #1 | [2]; Table 4, MSSA ATCC 11632, Exp. #2
≦0.125 μg/ml: [1]; Table 3, S. epidermidis ATCC 27626, Exp. #1 | [1]; Table 3, S. epidermidis ATCC 27626, Exp. #2 | [1]; Table 3, S. epidermidis ATCC 700566, Exp. #1 | [1]; Table 3, S. epidermidis ATCC 700566, Exp. #2 | [1]; Table 3, S. epidermidis ATCC 700583, Exp. #1 | [1]; Table 3, S. epidermidis ATCC 700583, Exp. #2 | [2]; Table 3, S. aureus ATCC 11632, Exp. #1 | [2]; Table 3, S. aureus ATCC 11632, Exp. #2 | [2]; Table 3, S. aureus ATCC 13301, Exp. #1 | [2]; Table 3, S. aureus ATCC 13301, Exp. #2 | [2]; Table 3, S. aureus ATCC 14154, Exp. #1 | [2]; Table 3, S. aureus ATCC 14154, Exp. #2 | [2]; Table 3, S. aureus ATCC 33591, Exp. #1 | [2]; Table 3, S. aureus ATCC 33591, Exp. #2 | [2]; Table 3, S. aureus ATCC 33592, Exp. #1 | [2]; Table 3, S. aureus ATCC 33592, Exp. #2 | [2]; Table 3, S. aureus ATCC 33593, Exp. #1 | [2]; Table 3, S. aureus ATCC 33593, Exp. #2 | [2]; Table 3, S. aureus ATCC 43300, Exp. #1 | [2]; Table 3, S. aureus ATCC 43300, Exp. #2 | [2]; Table 3, S. aureus ATCC 700260, Exp. #1 | [2]; Table 3, S. aureus ATCC 700260, Exp. #2 | [2]; Table 3, S. aureus ATCC 700698, Exp. #1 | [2]; Table 3, S. aureus ATCC 700698, Exp. #2 | [2]; Table 3, S. aureus ATCC 700787, Exp. #1 | [2]; Table 3, S. aureus ATCC 700787, Exp. #2 | [2]; Table 3, S. aureus ATCC 700788, Exp. #1 | [2]; Table 3, S. aureus ATCC 700788, Exp. #2 | [2]; Table 3, S. aureus ATCC 700789, Exp. #1 | [2]; Table 3, S. aureus ATCC 700789, Exp. #2 | [2]; Table 4, MSSA ATCC 33594, Exp. #1 | [2]; Table 4, MSSA ATCC 33594, Exp. #2 | [2]; Table 4, MSSA ATCC 700260, Exp. #1
4000 ng/mL: [2]; Table 4, MSSA ATCC 700260, Exp. #2
62.5 ng/mL: [2]; Table 5, MSSA ATCC 700788
0.015 ng/mL: [2]; Table 5, MSSA ATCC 13301
0.977 ng/mL: [2]; Table 5, MSSA ATCC 11632 | [2]; Table 5, MSSA ATCC 14154 | [2]; Table 5, MSSA ATCC 43300
3.906 ng/mL: [2]; Table 5, MSSA ATCC 700698
7.813 ng/mL: [2]; Table 5, MSSA ATCC 700787
8000 ng/mL: [2]; Table 3, S. aureus ATCC 700699, Exp. #2
0.031 ng/mL: [2]; Table 5, MSSA ATCC 700260
500 ng/mL: [1]; Table 3, S. epidermidis ATCC 700578, Exp. #1
0.488 ng/mL: [2]; Table 5, MSSA ATCC 33592 | [2]; Table 5, MSSA ATCC 33593
